{
  "source": "the pKa sets of Baltruschat and Czodrowski (2020)",
  "data": [
    {"conditions": "basic group", "values": [
      {"smiles": "COCCNc1ccccc1", "pKa": 4.05},
      {"smiles": "O=[N+]([O-])c1ccc2cccnc2c1O", "pKa": 1.94},
      {"smiles": "CC(=O)C(CN1CCOCC1)c1ccccc1", "note": "(stereo not given)", "pKa": 6.23},
      {"smiles": "CCCCN1CCCC1", "pKa": 10.4},
      {"smiles": "Nc1nnn[nH]1", "pKa": 1.81},
      {"smiles": "CN(C)c1ccc2c(c1)Sc1cc([NH+](C)C)ccc1N2", "pKa": 5.27},
      {"smiles": "CC[NH+](CC)CCCC(C)Nc1ccnc2cc(Br)ccc12", "note": "(stereo not given)", "pKa": 8.1},
      {"smiles": "Brc1cncc2ccccc12", "pKa": 3.54},
      {"smiles": "O=[PH]([O-])C([NH2+]Cc1ccccn1)c1ccccc1O", "note": "(stereo not given)", "pKa": 3.25},
      {"smiles": "CC[NH+](CC)CCNc1ccnc2ccccc12", "pKa": 8},
      {"smiles": "CCCSCCN", "pKa": 9.43},
      {"smiles": "CCCCNCC(=O)Nc1c(C)cccc1C", "pKa": 8.04},
      {"smiles": "Cc1cc(N)ccc1[N+](=O)[O-]", "pKa": 1.64},
      {"smiles": "COC(=O)[C@H](Cc1c[nH]cn1)NC(C)=O", "pKa": 6.3},
      {"smiles": "Cc1ccc(N(CC2CO2)CC2CO2)cc1", "note": "(stereo not given)", "pKa": -0.48},
      {"smiles": "CC(C)(C)N1CC(O[Si](C)(C)C)C1", "pKa": 9.24},
      {"smiles": "Cc1nc(C(=O)[O-])ccc1O", "pKa": 5.13},
      {"smiles": "O=C([O-])[C@@H](O)Cc1c[nH]cn1", "pKa": 7.32},
      {"smiles": "[S-]c1ncnc2nccnc12", "pKa": 6.81},
      {"smiles": "Brc1ccc(C2NCCS2)cc1", "note": "(stereo not given)", "pKa": 5.05},
      {"smiles": "CCC(=O)C(CCN(C)C)(c1ccccc1)c1ccccc1", "pKa": 9.23},
      {"smiles": "OC[C@H](O)[C@H](O)[C@@H](O)[C@H](O)c1nc2ccccc2[nH]1", "pKa": 5.28},
      {"smiles": "O=CC(c1ccccc1)c1ccccc1", "pKa": 9.42},
      {"smiles": "Cc1cccc2[nH]cnc12", "pKa": 5.67},
      {"smiles": "Oc1ccc(Cl)cc1CN1CCOCC1", "pKa": 6.78},
      {"smiles": "O=[N+]([O-])c1ccc2[nH]c(-c3ccccc3)nc2c1", "pKa": 2.95},
      {"smiles": "Cc1cccc(C)c1NC(=O)CN1CCCCC1", "pKa": 7.6},
      {"smiles": "CCNC(=O)c1ccccn1", "pKa": 2.4},
      {"smiles": "C[NH+](C)CCCN", "pKa": 6.74},
      {"smiles": "C=CCOc1nc(N)nc(N)n1", "pKa": 3.43},
      {"smiles": "c1ccc2c(c1)CCN2", "pKa": 5.49},
      {"smiles": "Nc1cccc(N)c1", "pKa": 5.04},
      {"smiles": "NCCCCCC[NH3+]", "pKa": 10.2},
      {"smiles": "Cn1c(-c2ccccc2[O-])nc2ccccc21", "pKa": 8.92},
      {"smiles": "SCc1c[nH]cn1", "pKa": 6.54},
      {"smiles": "CC1=C[C@H]2CC[C@@H](O)[C@H]2N1C", "pKa": 11.7},
      {"smiles": "[O-]c1ncnc2nc[nH]c12", "pKa": 8.81},
      {"smiles": "CC(C)N", "pKa": 10.6},
      {"smiles": "CC1=CCN2CC[C@@H](O)[C@@H]12", "pKa": 9.6},
      {"smiles": "CCC(C)(C)N(C)C(C)C", "pKa": 11.2},
      {"smiles": "c1ccc2c(c1)CNCCC[NH2+]Cc1ccccc1OCCO2", "pKa": 7.82},
      {"smiles": "CCOc1c(C#N)cnc2ccccc12", "pKa": 3.18},
      {"smiles": "CCCc1ccccn1", "pKa": 5.97},
      {"smiles": "[S-]c1ncnc2nc[nH]c12", "pKa": 7.74},
      {"smiles": "Nc1ncnc2nn([C@@H]3C[C@@H](O)[C@H](CO)O3)nc12", "pKa": 3.1},
      {"smiles": "ONc1ncnc2nc[nH]c12", "pKa": 3.8},
      {"smiles": "OCCC[C@H]1CC[C@@H]2CCCN12", "pKa": 11.2},
      {"smiles": "O=C(O)c1ccc[nH+]c1", "pKa": -2.4},
      {"smiles": "COCCCCNc1ccccc1", "pKa": 4.6},
      {"smiles": "Cn1ncc2c(Nc3ccccc3)ncnc21", "pKa": 3.53},
      {"smiles": "CCC/C=C1\\CCCN1C", "pKa": 11.9},
      {"smiles": "Nc1ncc2ccccc2n1", "pKa": 4.8},
      {"smiles": "Cc1cc2ncn([C@H]3O[C@@H](CO)[C@H](O)[C@@H](O)[C@@H]3O)c2cc1C", "pKa": 4.63},
      {"smiles": "C=C(C)[C@H]1CN[C@H](C(=O)[O-])[C@H]1CC(=O)OC", "pKa": 9.52},
      {"smiles": "C[Si](C)(C)c1ccc(N)cc1", "pKa": 4.36},
      {"smiles": "CN1C(=O)N(CCN2CCOCC2)C(=O)C(C)(C2=CCCCC2)C1=O", "note": "(stereo not given)", "pKa": 5.75},
      {"smiles": "CNCCCCc1ccccc1", "pKa": 10.8},
      {"smiles": "COc1cc2c(cc1OC)C13CCN4C1CC1C(=CCOC5CC(=O)N2C3C51)[C@@H]4S(=O)(=O)[O-]", "note": "(stereo not given in full)", "pKa": 3.12},
      {"smiles": "Nc1ncnc2c1ncn2CCOCP(=O)([O-])O", "pKa": 4.18},
      {"smiles": "C#C[C@]1(O)C[C@@H](C)N(C)[C@H]2CCCC[C@@H]21", "pKa": 8.99},
      {"smiles": "O=C([O-])CN(CC(=O)[O-])Cc1cc([N+](=O)[O-])ccc1[O-]", "pKa": 10.2},
      {"smiles": "O=CN1CCNCC1", "pKa": 7.98},
      {"smiles": "CN(C)c1ccc2cc3ccc([NH+](C)C)cc3[nH+]c2c1", "pKa": -3.15},
      {"smiles": "C[NH+]1CCCC1c1cccnc1", "note": "(stereo not given)", "pKa": 3.01},
      {"smiles": "CC(C)CC(N)C(=O)[O-]", "note": "(stereo not given)", "pKa": 9.76},
      {"smiles": "OCCCCCc1cccnc1", "pKa": 5.72},
      {"smiles": "CCCCNc1ccccc1", "pKa": 5.11},
      {"smiles": "CN(C)c1ccc(NC(=O)/C=N/O)cc1", "pKa": 4.94},
      {"smiles": "CCCCCCCCCCNCc1ccc(C)cc1", "pKa": 9.48},
      {"smiles": "Cn1c(=O)[nH]c2ncn(C)c2c1=O", "pKa": 0.5},
      {"smiles": "NCC1CCCCC1", "pKa": 10.5},
      {"smiles": "Oc1cccc2cnccc12", "pKa": 5.4},
      {"smiles": "C[Si](C)(C)c1cccc(N)c1", "pKa": 4.64},
      {"smiles": "Cc1n[nH]c2ncnc(N)c12", "pKa": 4.61},
      {"smiles": "Nc1nc2cc3ccccc3cc2[nH]1", "pKa": 7.01},
      {"smiles": "COc1cccc(OC)c1-c1nc2ncccc2[nH]1", "pKa": 4.85},
      {"smiles": "Cn1cccnc1=N", "pKa": 10.8},
      {"smiles": "CNCC(C)c1ccccc1", "note": "(stereo not given)", "pKa": 9.87},
      {"smiles": "Cc1cccc(CN(C)C)c1O", "pKa": 8.18},
      {"smiles": "C[NH2+]CCN(C)CC[NH2+]C", "pKa": 3.13},
      {"smiles": "COc1c(C(=O)N[C@@H]2C[C@H]3CC[C@@H](C2)N3Cc2ccccc2)cccc1[N+](=O)[O-]", "pKa": 8.61},
      {"smiles": "C#CC(C)(C)N(C)C(C)(C)C#C", "pKa": 6.65},
      {"smiles": "Nc1nccc([O-])n1", "pKa": 9.42},
      {"smiles": "COc1cc(C#N)cc(C(=O)N[C@@H]2C[C@H]3CC[C@@H](C2)N3Cc2ccccc2)c1OC", "pKa": 8.7},
      {"smiles": "C[C@H](N)[C@H](C)[NH3+]", "pKa": 6.79},
      {"smiles": "CCOc1cccc(N)c1", "pKa": 4.15},
      {"smiles": "COCCNc1ccc(Cl)cc1", "pKa": 3.3},
      {"smiles": "c1csc(C2CCCN2)c1", "note": "(stereo not given)", "pKa": 9.35},
      {"smiles": "NNC(=O)c1ccc([NH3+])cc1", "pKa": 2.05},
      {"smiles": "COc1nccc(C)n1", "pKa": 2.1}
    ]}
  ]
}
